Laboratory results as given in patent publication US11191273B2, “Methods of making pyranopyrans such as pyranopyran nitrile and methods of using pyranopyrans such as pyranopyran nitrile” (The United States of America, as Represented by the …, priority 2018, dated 2021).
Values after ≈ are worked out from the molar mass of the structure shown. Values joined by “and” are separate entries in the source; they are usually repeats but may differ in a detail not shown here. Equal entries are not always repeated. Where two headings read alike, the source gives them in different places.

Experiments:
[1] = system: Flavobacterium columnare ALM-00-173; assay: rapid 96-well microplate antibacterial bioassay against F. columnare; type: cell-based; details: F. columnare ALM-00-173; for MIC RDCF (relative-to-drug-control florfenicol): MIC divided by MIC of florfenicol; for IC50 / MIC: Flavobacterium columnare; for IC50: ALM00173, 24 h; for MIC: ALM00173, read-out: MIC (minimum inhibitory concentration); for MIC / MIC (minimum inhibitory concentration): 24 h
Excerpt: An isolate of F. columnare [isolate ALM-00-173 (genomovar II)] was obtained from Dr. Covadonga Arias (School of Fisheries, Aquaculture and Aquatic Sciences, Auburn University, Auburn, Ala.). In order to assure purity, cultures of F. columnare ALM-00-173 were maintained separately on modified Shieh (MS) agar plates (pH 7.2-7.4) (Decostere, A., et al., Laboratory Animals, 36: 396-402 (2003)). Prior to conducting the bioassay, colonies of F. columnare ALM-00-173 were used to prepare the assay culture material by culturing in 75 mL of MS broth for 24 h at 29±1° C. at 150 rpm on a rotary shaker (model C24KC; New Brunswick Scientific, Edison, N.J.). After overnight incubation, a 0.5 McFarland standard of F. columnare ALM-00-173 culture material was prepared by transferring cells from the broth culture to fresh MS broth (Schrader, K. K., and M. D. Harries, Aquaculture Research, 37: 928-937 (2006)).
(§1) The pure test compounds (−)-diplopyrone and (−)-diplopyrone acetate were dissolved in technical grade 100% methanol while (−)-diplopyrone nitrile was dissolved in technical grade 100% acetone. The three test compounds were evaluated for antibacterial activity against F. columnare ALM-00-173 and E. ictaluri S02-1039 using a rapid 96-well microplate bioassay and following previous procedures (Schrader and Harries 2006). Florfenicol was included as a positive drug control. Control wells (no test material added) were also included in each assay. Final test concentrations of compounds and florfenicol were 0.01, 0.1, 1.0, 10.0, 100.0, and 1000.0 μM. Three replications were used for each dilution of each test compound and drug control, and final results were converted to units of mg/L to allow comparison with previous studies.
(§2) The 24-h 50% inhibition concentration (IC50) and minimum inhibitory concentration (MIC) were determined using sterile 96-well (flat bottom) polystyrene microplates (Corning Costar Corp., Acton, Mass.) for (−)-diplopyrone and (−)-diplopyrone acetate. In order to prevent solvent interaction with polystyrene, sterile 96-well (flat bottom) quartz microplates (Hellma Cells, Inc., Forest Hills, N.Y.) were used for (−)-diplopyrone nitrile. Initially, dissolved test compounds or florfenicol were micropippeted separately into individual microplate wells (10 μL/well), and the solvent was allowed to completely evaporate before 0.5 MacFarland bacterial culture was added to the microplate wells (200 μL/well). Microplates were incubated at 29±1° C. (VWR model 2005 incubator; Sheldon Manufacturing, Inc., Cornelius, Oreg.). A microplate photometer (SpectraCount, Packard Instrument Company, Meriden, Conn.) was used to measure the absorbance (630 nm) of the microplate wells at time 0 and 24-h. Two replicates of each microplate bioassay were made. Cell viability of F. columnare ALM-00-173 and E. ictaluri S02-1039 was determined at the completion of the growth bioassay for each test compound using the yellow dye 3(4,5-dimethylthiazol-2-yl)-2,5-diphenyl tetrazolium bromide (MTT) and previously outlined procedures (Schrader and Harries 2006). In addition, the minimum bactericidal concentration (MBC) was determined for very active compounds (Schrader and Harries 2006).
(§3) The means and standard errors of absorbance measurements were calculated, graphed, and compared to controls to determine the MIC, 24-h IC50, and MTT 24-h IC50 for each test compound. The 24-h IC50 and MIC results for each test compound were divided by the respective 24-h IC50 and MIC results obtained for the positive control florfenicol to determine the relative-to-drug-control florfenicol (RDCF) values.

[2] = system: Edwardsiella ictaluri S02-1039; assay: rapid 96-well microplate antibacterial bioassay against E. ictaluri; type: cell-based; details: E. ictaluri S02-1039; for MIC RDCF (relative-to-drug-control florfenicol): MIC divided by MIC of florfenicol; for IC50 / MIC: Edwardsiella ictaluri; for IC50: S021039, 24 h; for MIC: S021039, read-out: MIC (minimum inhibitory concentration); for MIC / MIC (minimum inhibitory concentration): 24 h
Excerpt: An isolate of E. ictaluri (isolate S02-1039) was obtained from a person (formerly with the College of Veterinary Medicine, Mississippi State University, Stoneville, Miss.). In order to assure purity, cultures of E. ictaluri S02-1039 were maintained on 3.8% Mueller-Hinton (MH) agar plates (pH 7.3) (Becton, Dickinson and Company, Sparks, Md.). Prior to conducting the bioassay, colonies of E. ictaluri S02-1039 were used to prepare assay culture material by aseptically transferring bacterial cells from colonies to 45 mL of 3.8% MH broth to form a bacterial cell density of 0.5 McFarland standard.
as §1, §2, §3

[3] = absorbance 630 nm, SE in parentheses, read-out: 24-h IC50 (50% inhibition concentration)
[4] = tetrazolium bromide dye MTT, read-out: MTT 24-h IC50 (cell viability)
[5] = absorbance 630 nm, SE in parentheses

O=C1C=C[C@H]2O[C@H](CO)C=C[C@H]2O1 [Desmethylpyranopyran (28), (4aR,6S,8aR)-6-(Hydroxymethyl)-6,8a-dihydropyrano[3,2-b]pyran-2(4aH)-one]
MIC RDCF (relative-to-drug-control florfenicol) [1]: 505.6 (0) | IC50 [1, 3]: 76.4 µg/mL (≈ 419 µM) | IC50 [1, 4]: 79.2 µg/mL (≈ 435 µM) | MIC ([1]; SE in parentheses): 182 µg/mL (≈ 999 µM) | MIC RDCF (relative-to-drug-control florfenicol) [2]: 50.6 (0) | IC50 [2, 3]: 48.2 µg/mL (≈ 265 µM) | IC50 [2, 4]: 14.7 µg/mL (≈ 80.7 µM) | MIC ([2]; SE in parentheses): 18.2 µg/mL (≈ 99.9 µM)

CC(=O)OC[C@@H]1C=C[C@H]2OC(=O)C=C[C@H]2O1 [Desmethylpyranopyran acetate (27), (2S,4aR,8aR)-6-Oxo-2,4a,6,8a-tetrahydropyrano[3,2-b]pyran-2-yl]methyl acetate]
MIC (minimum inhibitory concentration) ([1]; SE in parentheses): 224.0 (0) mg/L | MIC RDCF (relative-to-drug-control florfenicol) [1]: 622.2 (0) | 24-h IC50 (50% inhibition concentration) [1, 5]: >224.0 mg/L | MTT 24-h IC50 (cell viability) ([1]; tetrazolium bromide dye MTT): >224.0 mg/L | MIC (minimum inhibitory concentration) ([2]; SE in parentheses): 22.4 (0) mg/L | MIC RDCF (relative-to-drug-control florfenicol) [2]: 62.2 (0) | 24-h IC50 (50% inhibition concentration) [2, 5]: 39.2 (1.1) mg/L | MTT 24-h IC50 (cell viability) ([2]; tetrazolium bromide dye MTT): 35.8 (4.5) mg/L

CS(=O)(=O)c1ccc([C@@H](O)[C@@H](CF)NC(=O)C(Cl)Cl)cc1 [Florfenicol, reference compound]
24-h IC50 (50% inhibition concentration) [1, 5]: 0.54 mg/L | IC50 [1, 3]: 0.69 µg/mL (≈ 1.93 µM) | MIC ([1]; SE in parentheses): 0.36 µg/mL (≈ 1 µM) | 24-h IC50 (50% inhibition concentration) [2, 5]: 0.14 mg/L | IC50 [2, 3]: 0.18 µg/mL (≈ 0.502 µM) | MIC ([2]; SE in parentheses): 0.36 µg/mL (≈ 1 µM)

C[C@@H](O)[C@@H]1C=C[C@H]2OC(=O)C=C[C@H]2O1 [Pyranopyran (2), (4aR,6S,8aR)-6-((R)-1-Hydroxyethyl)-6,8a-dihydropyrano[3,2-b]pyran-2-(4aH)-one]
MIC (minimum inhibitory concentration) ([1]; SE in parentheses): 196.0 (0) mg/L | MIC RDCF (relative-to-drug-control florfenicol) [1]: 544.4 (0) | 24-h IC50 (50% inhibition concentration) [1, 5]: 76.4 (2.0) mg/L | MTT 24-h IC50 (cell viability) ([1]; tetrazolium bromide dye MTT): 78.4 (0) mg/L | MIC (minimum inhibitory concentration) ([2]; SE in parentheses): 19.6±0 mg/L and 19.6 (0) mg/L | MIC RDCF (relative-to-drug-control florfenicol) [2]: 54.4 (0) | 24-h IC50 (50% inhibition concentration) [2, 5]: 46.1 ± 1.0 mg/L | MTT 24-h IC50 (cell viability) ([2]; tetrazolium bromide dye MTT): 22.1 (9.3) mg/L

CC(=O)O[C@H](C)[C@@H]1C=C[C@H]2OC(=O)C=C[C@H]2O1 [Pyranopyran acetate (3), (4aR,6S,8aR)-6-((R)-1-Acetoxyethyl)-6,8a-dihydropyrano[3,2-b]pyran-2-(4aH)-one]
MIC (minimum inhibitory concentration) ([1]; SE in parentheses): 238 mg/L and 238.0 (0) mg/L | MIC RDCF (relative-to-drug-control florfenicol) [1]: 661.1 (0) | 24-h IC50 (50% inhibition concentration) [1, 5]: >238.0 mg/L | MTT 24-h IC50 (cell viability) ([1]; tetrazolium bromide dye MTT): >238.0 mg/L | MIC (minimum inhibitory concentration) ([2]; SE in parentheses): 238.0 (0) mg/L | MIC RDCF (relative-to-drug-control florfenicol) [2]: 661.1 (0) | 24-h IC50 (50% inhibition concentration) [2, 5]: 165.4 (1.2) mg/L | MTT 24-h IC50 (cell viability) ([2]; tetrazolium bromide dye MTT): 90.4 (4.8) mg/L

NC(=O)[C@@H]1C=C[C@H]2OC(=O)C=C[C@H]2O1 [Pyranopyran amide (29), (2S,4aR,8aR)-6-Oxo-2,4a,6,8a-tetrahydropyrano[3,2-b]pyran-2-carboxamide]
MIC RDCF (relative-to-drug-control florfenicol) [1]: 297.9 (243.8) | IC50 [1, 3]: 54.6 µg/mL (≈ 280 µM) | IC50 [1, 4]: 75.1 µg/mL (≈ 385 µM) | MIC ([1]; SE in parentheses): 107 µg/mL (≈ 550 µM) | MIC RDCF (relative-to-drug-control florfenicol) [2]: 54.2 (0) | IC50 [2, 3]: 20.5 µg/mL (≈ 105 µM) | IC50 [2, 4]: 16.6 µg/mL (≈ 85.1 µM) | MIC ([2]; SE in parentheses): 19.5 µg/mL (≈ 99.9 µM) | melting point: 160 to 164 °C

C#C[C@@H]1C=C[C@H]2OC(=O)C=C[C@H]2O1 [compound 36, (4aR,6S,8aR)-6-Ethynyl-6,8a-dihydropyrano[3,2-b]pyran-2(4aH)-one]
melting point: 153 to 154 °C
